Results as given in US20060029623A1, “Invert emulsions comprising at least one active agent sensitive to water and cosmetic/dermatological applications thereof” (GALDERMA RESEARCH & DEVELOPMENT, S.N.C., priority 2003, published 2006).

Experiment: Maximum solubility of the vitamin D derivative in various excipients (excess active, stirring 12 h, filtration, HPLC assay)
Type: physicochemical
Description: In the table below are the solubility results for (4E,6E)-7-[3-(3,4-bishydroxymethylbenzyloxy)phenyl]-3-ethylnona4,6-dien-3-ol, a vitamin D analogue, in various excipients:
These maximum solubilities of (4E,6E)-7-[3-(3,4-bishydroxymethylbenzyloxy)phenyl]-3-ethylnona-4,6-dien-3-ol, a vitamin D analogue, were measured after stirring for 12 h with a magnetic stirrer bar, at room temperature, with an excess of active ingredient in the excipient to be analyzed. The suspension is then filtered (1.2 μm) and then the filtrate is assayed by HPLC.

- Solubility, Concentration in % (w/w) (in Cetiol SN, room temperature): <0.1 % (w/w)
- Solubility, Concentration in % (w/w) (in Crodamol IPP, room temperature): 0.2 % (w/w)
- Solubility, Concentration in % (w/w) (in Ethanol Rectapur, room temperature): 23.3 % (w/w)
- Solubility, Concentration in % (w/w) (in Eutanol G, room temperature): 0.5 % (w/w)
- Solubility, Concentration in % (w/w) (in Glycerine, room temperature): <0.05 % (w/w)
- Solubility, Concentration in % (w/w) (in Marcol 172, room temperature): <0.05 % (w/w)
- Solubility, Concentration in % (w/w) (in Miglyol 812, room temperature): 0.4 % (w/w)
- Solubility, Concentration in % (w/w) (in PEG 400, room temperature): 17.8 % (w/w)
- Solubility, Concentration in % (w/w) (in Primol 352, room temperature): <0.05 % (w/w)
- Solubility, Concentration in % (w/w) (in Propylene glycol, room temperature): 6.7 % (w/w)
- Solubility, Concentration in % (w/w) (in Silicone DC 200, room temperature): <0.05 % (w/w)
- Solubility, Concentration in % (w/w) (in Tegosoft TN, room temperature): 0.3 % (w/w)
- Solubility, Concentration in % (w/w) (in Transcutol, room temperature): 27.0 % (w/w)
- Solubility, Concentration in % (w/w) (solution pH 4, room temperature): <0.05 % (w/w)
- Solubility, Concentration in % (w/w) (solution pH 7, room temperature): <0.05 % (w/w)
SMILES: CC/C(=C\C=C\C(O)(CC)CC)c1cccc(OCc2ccc(CO)c(CO)c2)c1 [Compound 1, (4E,6E)-7-[3-(3,4-bishydroxymethyl-benzyloxy)phenyl]-3-ethylnona-4,6-dien-3-ol]
